Test systems include DU-145 prostate; HCT-116 colon; IGROV1 ovarian; MDA-MB-231 breast; MDA-MB-435; NCI-H23 lung; OVCAR-3 ovarian; RXF 393 renal; SK-MEL-5 melanoma; UACC-257 melanoma.
What all share (experiment): inhibition of tumour cell growth, NCI panel, 48 h

“And” between values parts separate entries of the source, which are not always exact repeats. Equal values may be shown once.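 Following 48 hours of exposure in 96-well plates, responses at five concentrations were used to interpolate endpoints linearly. GI50 = concentration required for 50% inhibition of growth. TGI: concentration producing complete growth inhibition.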

In the case of `CSc1nc(SC)c2c(CO)c(Br)n(Cc3ccccc3)c2n1`, the TGI in the assay on DU-145 prostate was 77.8 µM; in the assay on HCT-116 colon, above 100 µM; with IGROV1 ovarian it was 39.3 µM; with MDA-MB-231 breast, 36.5 µM; in the assay on MDA-MB-435, above 100 µM; in the assay on NCI-H23 lung, above 100 µM. In addition, the TGI is above 100 µM in the assay on OVCAR-3 ovarian, 60.3 µM in the assay with RXF 393 renal and above 100 µM with SK-MEL-5 melanoma.

Turning to `COC(=O)/C=C/c1cc2c(cc1-c1c(C(=O)O)cc(OC)c(OC)c1OC)OCO2`, the TGI in the assay on DU-145 prostate, in the assay on HCT-116 colon, with IGROV1 ovarian, in the assay with MDA-MB-231 breast, in the assay with MDA-MB-435 and in the assay with NCI-H23 lung was above 10 µM throughout. The TGI with OVCAR-3 ovarian, in the assay on SK-MEL-5 melanoma and with UACC-257 melanoma was above 10 µM throughout.

`OCC#Cc1ccccc1C#CCCCCCC#Cc1ccccc1C#CCO`: the GI50 in the assay on DU-145 prostate was 20.2 µM; in the assay with HCT-116 colon it was 12.7 µM; in the assay on IGROV1 ovarian, 18.7 µM; in the assay with MDA-MB-231 breast it was 17.2 µM; in the assay on MDA-MB-435, 18.8 µM; in the assay with NCI-H23 lung, 18.4 µM. For the same compound, the GI50 with OVCAR-3 ovarian was 16 µM; in the assay with SK-MEL-5 melanoma it was 18.9 µM; in the assay with UACC-257 melanoma it was 15.7 µM. Further, the TGI came to 41.7 µM in the assay with DU-145 prostate; 25.2 µM with HCT-116 colon; 43.3 µM with IGROV1 ovarian; 32.6 µM in the assay with MDA-MB-231 breast; 36.1 µM in the assay on MDA-MB-435; 33.6 µM in the assay with NCI-H23 lung. For the same compound, the TGI in the assay with OVCAR-3 ovarian was determined as 32.9 µM; in the assay with SK-MEL-5 melanoma, 33.1 µM; in the assay with UACC-257 melanoma it was 31.4 µM.

`S=P(N1CC1)(N1CC1)N1CC1`: the GI50 was 11.9 µM in the assay with DU-145 prostate; 21.2 µM and 171 µM with HCT-116 colon; 38.8 µM and 280 µM in the assay on IGROV1 ovarian; 529 µM with MDA-MB-231 breast; 276 µM with MDA-MB-435; 18.8 µM with RXF 393 renal. For the same compound, the GI50 with UACC-257 melanoma was 29 µM and 272 µM. Further, the TGI in the assay on DU-145 prostate was 520 µM and 97.8 µM; in the assay on HCT-116 colon it was 46.1 µM and 317 µM and 367 µM; in the assay on IGROV1 ovarian, 77.2 µM and 361 µM and 507 µM; with MDA-MB-231 breast, 678 µM and 777 µM; in the assay on MDA-MB-435, 403 µM and 509 µM; in the assay with OVCAR-3 ovarian, 48.8 µM and 381 µM and 470 µM. In addition, the TGI in the assay on RXF 393 renal was 39.6 µM and 251 µM and 308 µM.

In the case of `COC(=O)[C@@H](C)C[C@H](Cc1ccccc1)NC(=O)c1csc([C@@H](C[C@H](C(C)C)N(C)C(=O)[C@@H](NC(=O)[C@H]2CCCCN2C)C2CC2)OC(C)=O)n1`, the GI50 with DU-145 prostate was 0.000311 µM; in the assay with HCT-116 colon, 0.00043 µM and 0.00165 µM; in the assay on IGROV1 ovarian, 0.00104 µM and 0.00165 µM; in the assay with MDA-MB-231 breast, 0.00143 µM and 0.00165 µM; in the assay on MDA-MB-435, below 0.00165 µM; in the assay with NCI-H23 lung, 0.000532 µM and 0.00165 µM. In the assay on OVCAR-3 ovarian, the GI50 was 4.97e-05 µM and < 0.00165 µM. Further, the TGI is 0.011 µM with HCT-116 colon; above 16.5 µM with IGROV1 ovarian; above 16.5 µM in the assay with MDA-MB-231 breast; below 0.00165 µM in the assay with MDA-MB-435; above 16.5 µM in the assay with NCI-H23 lung; 0.00379 µM and < 0.00165 µM in the assay with OVCAR-3 ovarian. For the same compound, the TGI in the assay with SK-MEL-5 melanoma is 0.0138 µM and 0.00203 µM.

Consider `C=C1C(=O)O[C@H]2[C@H]1CC/C(Cn1cc(-c3ccccc3C(F)(F)F)nn1)=C\CC[C@@]1(C)O[C@@H]21`, for which the GI50 with DU-145 prostate is 1.42 µM; in the assay with HCT-116 colon, 1.26 µM; in the assay with IGROV1 ovarian, 1.81 µM; with MDA-MB-231 breast it was 1.64 µM; in the assay on MDA-MB-435, 2.18 µM; in the assay with NCI-H23 lung, 1.75 µM. The GI50 in the assay with OVCAR-3 ovarian is 1.04 µM; with RXF 393 renal it was 1.07 µM; in the assay with SK-MEL-5 melanoma, 1.72 µM. Moreover, the TGI was found to be 2.78 µM in the assay on DU-145 prostate; 2.74 µM in the assay with HCT-116 colon; 3.86 µM with IGROV1 ovarian; 3.75 µM in the assay on MDA-MB-231 breast; 7.11 µM in the assay with MDA-MB-435; 3.57 µM in the assay on NCI-H23 lung. Further, the TGI in the assay with OVCAR-3 ovarian amounted to 2.33 µM; in the assay with RXF 393 renal, 2.32 µM; in the assay with SK-MEL-5 melanoma, 3.44 µM.

Take `CC(C)=CC1=C2C3=C(C(=O)C4(O)Oc5c(C)c6c7c(c5OC24C)[C@@H](C)CC[C@@H]7[C@@H](C)C[C@H]6C=C(C)C)C(C)CCC3C(C)C1` (stereo not given in full): the GI50 in the assay with DU-145 prostate, in the assay with IGROV1 ovarian, with MDA-MB-231 breast, in the assay on MDA-MB-435, with NCI-H23 lung and with OVCAR-3 ovarian was above 100 µM throughout. The GI50 in the assay with RXF 393 renal, with SK-MEL-5 melanoma and in the assay on UACC-257 melanoma was above 100 µM each time. The TGI in the assay with DU-145 prostate, in the assay on IGROV1 ovarian, with MDA-MB-231 breast, in the assay with MDA-MB-435, with NCI-H23 lung and in the assay with OVCAR-3 ovarian was above 100 µM in each case. For the same compound, the TGI with RXF 393 renal, in the assay with SK-MEL-5 melanoma and in the assay with UACC-257 melanoma was above 100 µM throughout.

Consider `CN(C)CCCNC(=O)c1cc(NC(=O)c2cc(NC(=O)CCNS(=O)(=O)c3ccc4c(c3)C(=O)c3ccccc3C4=O)cn2C)cn1C`, for which the GI50 in the assay on IGROV1 ovarian, in the assay with MDA-MB-231 breast, in the assay with MDA-MB-435, with NCI-H23 lung, in the assay on OVCAR-3 ovarian and in the assay on RXF 393 renal was above 100 µM throughout. Further, the GI50 with SK-MEL-5 melanoma and in the assay on UACC-257 melanoma was above 100 µM in each case. The TGI in the assay on IGROV1 ovarian, in the assay on MDA-MB-231 breast, in the assay with MDA-MB-435, in the assay on NCI-H23 lung, in the assay with OVCAR-3 ovarian and in the assay with RXF 393 renal was above 100 µM throughout. The TGI in the assay with SK-MEL-5 melanoma and in the assay with UACC-257 melanoma was above 100 µM throughout.

Turning to `O=C1c2ccccc2-c2c1c1ccccc1c(=O)n2CCCn1ccnc1`, the GI50 in the assay with DU-145 prostate is 1.41 µM; in the assay on HCT-116 colon, 1.4 µM; in the assay with IGROV1 ovarian it was 2.86 µM; in the assay with MDA-MB-231 breast, 2.08 µM; with MDA-MB-435, 2.74 µM; in the assay with NCI-H23 lung, 1.84 µM. Also, in the assay on RXF 393 renal, the GI50 is 6.15 µM. The TGI with DU-145 prostate is 6.94 µM; with HCT-116 colon it was 13.8 µM; with IGROV1 ovarian it was above 100 µM; in the assay with MDA-MB-231 breast, 5.8 µM; in the assay on MDA-MB-435 it was 10.7 µM; in the assay on NCI-H23 lung, 6.05 µM. The compound further returned a TGI with RXF 393 renal above 100 µM.

The record behind these values is PubChem BioAssay (NCI).
